Among the data in patent publication US20230160018A1, “CRYBETAB2 PREDICTS POOR BREAST CANCER OUTCOME AND SENSITIZES TUMORS TO NUCLEOLIN AND CDK INHIBITION” (The Johns Hopkins University, priority 2020, published 2023) are tumor size values, retold here.

In the assay the test system is MCF10AT1-vector tumors. The assay can be described thus: MCF10AT1-vector (CRYβB2-lacking) xenograft tumor growth in NSG mice. In kind it is in vivo. The conditions noted are these: palbociclib 50 mg/kg oral, 5 days/week, 2 weeks; tumors lack CRYβB2 expression.

`CC(=O)c1c(C)c2cnc(Nc3ccc(N4CCNCC4)cn3)nc2n(C2CCCC2)c1=O` [palbociclib]: the tumor size result is reported as “no effect”.
